PubChem BioAssay AID540252 (Sanford-Burnham Center for Chemical Genomics, 2011)
Activity calls are given as the source filed them. How the calls were made is not given here.

target: glucose-6-phosphate dehydrogenase-6-phosphogluconolactonase (Plasmodium falciparum 3D7); experiment: inhibition of P. falciparum G6PD activity – biochemical, end-point NADPH detection, orthogonal assay, dose response (AID 540252); conditions: purified PfG6PD enzyme, NADPH direct detection

**Q.** `Cc1cccc(-n2c(=S)[nH]c3sc4c(c3c2=O)CCc2ccccc2-4)c1` was tested. Which IC50 did it give?
**A.** > 80 µM (inactive)

**Q.** For `O=c1c2ccccc2sn1-c1ccccc1`, which IC50 is on record?
**A.** 7.9 µM

**Q.** Which IC50 does the source give for `O=C(O)c1ccccc1NS(=O)(=O)c1cccc(-n2sc3ccccc3c2=O)c1` here?
**A.** > 80 µM (inactive)

**Q.** `Cc1cc(C)c2c(=O)n(CC(=O)Nc3cccc(F)c3)sc2n1` was tested. Which IC50 did it give?
**A.** > 80 µM (inactive)

**Q.** For `COc1ccc(CCn2c(NN=C3CCCC3)nc3c2c(=O)[nH]c(=O)n3C)cc1`, which IC50 is on record?
**A.** > 80 µM (inactive)

**Q.** Which IC50 does the source give for `COc1ccc(C(=O)c2c(C(F)(F)F)oc3c2C(=O)c2ccccc2C3=O)cc1` here?
**A.** > 80 µM (inactive)

**Q.** Which IC50 does the source give for `Cc1ccc(S(=O)(=O)N(C)C)cc1NC(=O)CSc1nc2ncc(Cl)cc2[nH]1` here?
**A.** > 80 µM (inactive)

**Q.** How did the IC50 turn out when `O=[N+]([O-])c1c(NCCCO)cc(Sc2nc3ccccc3s2)c2nonc12` was run?
**A.** > 80 µM (inactive)

**Q.** `CCCCC1C(=O)N(c2ccccc2)N(c2ccc(O)cc2)C1=O` (configuration not stated) was tested. Which IC50 did it give?
**A.** > 80 µM (inactive)

**Q.** For `CCOc1ccccc1NS(=O)(=O)c1c(C)noc1C`, which IC50 is on record?
**A.** > 80 µM (inactive)

**Q.** `O=C(Cn1sc2ccccc2c1=O)Nc1ccc(Cl)cc1` was tested. Which IC50 did it give?
**A.** 15.2 µM

**Q.** How did the IC50 turn out when `COc1ccc(Nc2cc(C)c3c(O)cccc3n2)cc1` was run?
**A.** > 80 µM (inactive)

**Q.** With `O=C(CN1CCN(c2ccc(O)cc2)CC1)Nc1cc(S(=O)(=O)N2CCOCC2)ccc1Cl` as the compound, how does the IC50 read?
**A.** > 80 µM (inactive)

**Q.** How did the IC50 turn out when `CCN(CC)c1ccc(NC(=O)c2ccccc2Br)cc1S(=O)(=O)Nc1ccccc1OC` was run?
**A.** > 80 µM (inactive)

**Q.** `CN(C)c1ccc(/C=C/c2ccc3c4ccccc4ccc3[n+]2-c2ccccc2)cc1` was tested. Which IC50 did it give?
**A.** > 80 µM (inactive)

**Q.** How did the IC50 turn out when `COc1cc(CN2CCN(CCCc3ccccc3)C(CCO)C2)cc(OC)c1O` (configuration not stated) was run?
**A.** > 80 µM (inactive)

**Q.** For `CCN(CC)CCn1c2ccccc2c(=O)c2c(O)ccc(O)c21`, which IC50 is on record?
**A.** > 80 µM (inactive)

**Q.** Which IC50 does the source give for `Cc1c(N=C2C=C(Br)C(=O)C(Br)=C2)c(=O)n(-c2ccccc2)n1C` here?
**A.** > 80 µM (inactive)

**Q.** For `CCCCCCCCn1sccc1=O`, which IC50 is on record?
**A.** 46 µM

**Q.** `Cc1ccccc1N/C(SCc1cccc(Br)c1)=C(/C#N)C(N)=O` was tested. Which IC50 did it give?
**A.** > 80 µM (inactive)

**Q.** `COc1cc(/C=C/C(=O)c2ccc([N+](=O)[O-])o2)ccc1O` was tested. Which IC50 did it give?
**A.** > 80 µM (inactive)

**Q.** For `COc1ccc(Cl)cc1NC(=O)c1cccc([N+](=O)[O-])c1O`, which IC50 is on record?
**A.** > 80 µM (inactive)

**Q.** For `O=C(CNC(=O)c1cccs1)OCC(=O)c1ccc([N+](=O)[O-])cc1`, which IC50 is on record?
**A.** 62.5 µM

**Q.** For `CC(=O)Nc1cc(OC(C)=O)c2nonc2c1OC(C)=O`, which IC50 is on record?
**A.** > 80 µM (inactive)

**Q.** `CCOC(=O)c1cnc2ccc(C)cc2c1Sc1ccccc1C(=O)OC` was tested. Which IC50 did it give?
**A.** > 80 µM (inactive)

**Q.** How did the IC50 turn out when `COc1ccc(C(=O)Nc2nnc(S(=O)(=O)N3CCOCC3)s2)cc1` was run?
**A.** > 80 µM (inactive)

**Q.** Which IC50 does the source give for `CC(NC1=CC(=O)c2cccnc2C1=O)C(O)c1ccccc1` (configuration not stated) here?
**A.** > 80 µM (inactive)

**Q.** For `CN(C)c1ccc(Cc2cc3c(O)ccc(O)c3cc(Cc3ccc(N(C)C)cc3)c2=O)cc1`, which IC50 is on record?
**A.** > 80 µM (inactive)

**Q.** Which IC50 does the source give for `COCc1cc(=O)n2[nH]c(C(C)(C)C)cc2n1` here?
**A.** > 80 µM (inactive)

**Q.** How did the IC50 turn out when `C/C(Cn1nnc([N+](=O)[O-])n1)=N\NC(=O)c1ccc(O)cc1` was run?
**A.** > 80 µM (inactive)

**Q.** With `O=c1c2ccccc2sn1-c1cc(S(=O)(=O)N2CCOCC2)ccc1N1CCCC1` as the compound, how does the IC50 read?
**A.** 15.1 µM

**Q.** With `COc1ccc(NS(=O)(=O)c2ccc(N3CCCC3)c(NC(=S)Nc3cccc(C)c3C)c2)cc1` as the compound, how does the IC50 read?
**A.** > 80 µM (inactive)

**Q.** Which IC50 does the source give for `CCOC(=O)Nc1ccc(NCc2ccc(F)cc2)nc1N` here?
**A.** > 80 µM (inactive)

**Q.** With `CC(=O)Nc1ccc2c(=O)n(-c3ccccc3)sc2c1` as the compound, how does the IC50 read?
**A.** 13.8 µM

**Q.** With `Cc1[nH]c2ccccc2c1/C=N/Nc1nncn1N` as the compound, how does the IC50 read?
**A.** > 80 µM (inactive)

**Q.** Which IC50 does the source give for `C[C@H](CO)N1C[C@H](C)[C@@H](CN(C)C(=O)Nc2ccc(C(F)(F)F)cc2)Oc2c(cccc2N(C)C)C1=O` here?
**A.** > 80 µM (inactive)

**Q.** How did the IC50 turn out when `Cn1c2ccccc2c2ccc3c(c21)C(=O)C=CC3=O` was run?
**A.** > 80 µM (inactive)

**Q.** How did the IC50 turn out when `COC(=O)CCC(=O)Nc1sc(Cc2ccccc2)c(C)c1C(N)=O` was run?
**A.** > 80 µM (inactive)

**Q.** Which IC50 does the source give for `COc1ccc(CCn2c(NN=C3CCCCC3)nc3c2c(=O)[nH]c(=O)n3C)cc1` here?
**A.** > 80 µM (inactive)

**Q.** Which IC50 does the source give for `O=C1Nc2cc(C(=O)NCCCN3CCCC3)ccc2S/C1=C\c1ccccc1` here?
**A.** > 80 µM (inactive)

**Q.** `COc1ccc(/C=C/c2nc3ccccc3n2Cc2ccc(OC)c(OC)c2)cc1` was tested. Which IC50 did it give?
**A.** > 80 µM (inactive)

**Q.** For `Cc1cc(O)c(-c2cc(O)c(C)cc2O)cc1O`, which IC50 is on record?
**A.** > 80 µM (inactive)

**Q.** For `O=C(Nc1nnc(S(=O)(=O)N2CCOCC2)s1)c1ccc(F)cc1`, which IC50 is on record?
**A.** > 80 µM (inactive)

**Q.** How did the IC50 turn out when `CC(C)c1nnc(NC(=O)c2cc3ccccc3o2)s1` was run?
**A.** > 80 µM (inactive)

**Q.** For `C[c-]1[c-](C)[c-](C)[c-](C)[c-]1C.[Fe].c1cc2nccc(N3CCCC3)[c-]2c1` (configuration not stated), which IC50 is on record?
**A.** > 80 µM (inactive)

**Q.** `CCn1c2ccccc2c2nc3cc(S(=O)(=O)N4CCOCC4)ccc3nc21` was tested. Which IC50 did it give?
**A.** > 80 µM (inactive)

**Q.** With `Cc1cc(O)c(C(C)C)cc1N=Cc1ccc(N(C)C)cc1` as the compound, how does the IC50 read?
**A.** > 80 µM (inactive)

**Q.** How did the IC50 turn out when `COc1cc(-c2cc(OC)c(O)c(OC)c2)cc(OC)c1O` was run?
**A.** > 80 µM (inactive)

**Q.** `Cc1nc(COC(=O)c2cc(O)c3ccccc3c2O)cs1` was tested. Which IC50 did it give?
**A.** > 80 µM (inactive)

**Q.** Which IC50 does the source give for `Cc1ccc(NC(=O)c2cc(N3C(=O)C=CC3=O)ccc2N2CCOCC2)cc1` here?
**A.** > 80 µM (inactive)

**Q.** `CC1=NOC(=O)/C1=C\c1ccc(-c2ccccc2Br)o1` was tested. Which IC50 did it give?
**A.** > 80 µM (inactive)

**Q.** `CCOc1ccccc1C=NNC(=O)CCCCC(=O)NN=Cc1ccccc1OCC` was tested. Which IC50 did it give?
**A.** > 80 µM (inactive)

**Q.** With `CCC1(CC)Cc2ccccc2C(N)=C1C#N` as the compound, how does the IC50 read?
**A.** > 80 µM (inactive)

**Q.** How did the IC50 turn out when `Cc1cc(C)c[n+](C2=C([O-])c3ccccc3C(=O)/C2=N\S(=O)(=O)c2cccs2)c1` was run?
**A.** > 80 µM (inactive)

**Q.** With `CCc1cc(-c2n[nH]c(C)c2-c2ccccc2Cl)c(O)cc1OC` as the compound, how does the IC50 read?
**A.** > 80 µM (inactive)

**Q.** For `Nc1ccc(S(=O)(=O)c2cc(O)c3ccccc3c2O)cc1`, which IC50 is on record?
**A.** > 80 µM (inactive)

**Q.** `COc1c2ccoc2c(OCC=C(C)C)c2oc(=O)ccc12` was tested. Which IC50 did it give?
**A.** > 80 µM (inactive)

**Q.** `Oc1cc(CNCc2ccccc2)c(O)cc1CNCc1ccccc1` was tested. Which IC50 did it give?
**A.** > 80 µM (inactive)

**Q.** Which IC50 does the source give for `O=C(O)c1cc(N2C(=O)C=CC2=O)cc(N2C(=O)C=CC2=O)c1` here?
**A.** 18.9 µM

**Q.** With `CCN1CCN(C(=S)c2ccc(Cl)c(Cl)c2)CC1` as the compound, how does the IC50 read?
**A.** > 80 µM (inactive)

**Q.** Which IC50 does the source give for `COc1cc(Sc2ccc(C)cc2)c(OC)cc1N` here?
**A.** > 80 µM (inactive)

**Q.** Which IC50 does the source give for `COc1ccc(CN(C)S(=O)(=O)c2nnc(NC(=O)c3cccc(C)c3)s2)cc1OC` here?
**A.** > 80 µM (inactive)

**Q.** How did the IC50 turn out when `COc1cc(C(=O)ON=C2C=C(C)C(=O)C(C)=C2)cc(OC)c1OC` was run?
**A.** > 80 µM (inactive)

**Q.** With `O=C(Nc1nnc(S(=O)(=O)N2CCOCC2)s1)c1cccc(Br)c1` as the compound, how does the IC50 read?
**A.** > 80 µM (inactive)

**Q.** How did the IC50 turn out when `Cc1ccc2nc(SCC(=O)NC3CCCc4ccccc43)[nH]c2c1` (configuration not stated) was run?
**A.** > 80 µM (inactive)

**Q.** For `COc1ccc(C2(CNC(=O)c3ccc(OC)c([N+](=O)[O-])c3)CCCCC2)cc1OC`, which IC50 is on record?
**A.** > 80 µM (inactive)

**Q.** Which IC50 does the source give for `Nn1c(SCC(=O)Nc2cccnc2Cl)nnc1-c1ccccc1` here?
**A.** > 80 µM (inactive)

**Q.** With `CCN1CCCC1CNC(=O)c1ccc2c(c1)NC(=O)/C(=C\c1ccccc1Cl)S2` (configuration not stated) as the compound, how does the IC50 read?
**A.** > 80 µM (inactive)

**Q.** `COc1ccccc1N1CSC2=C(C#N)C(c3ccc(SC)cc3)CC(=O)N2C1` (configuration not stated) was tested. Which IC50 did it give?
**A.** > 80 µM (inactive)

**Q.** With `CC(=NNC(=S)N1CCN(c2ccccn2)CC1)c1nccs1` as the compound, how does the IC50 read?
**A.** > 80 µM (inactive)

**Q.** `O=S(=O)(Nc1ccccc1F)c1cccc(NC(=S)NCCN2CCOCC2)c1` was tested. Which IC50 did it give?
**A.** 71.2 µM

**Q.** Which IC50 does the source give for `CCN=c1scc(C)n1/N=C/c1ccc(O)c(O)c1O` here?
**A.** > 80 µM (inactive)
